Assays:
Format in all cases: binding
Settings in all cases: ✓ / X, key not given
2β3α = test: Epitope mapping, PDGFRβ/α chimera
Procedure: (§1) Various chimeric constructs of PDGFRβ and PDGFRα were first made by domain swapping, starting from N-terminus to C-terminus with PDGFRβ domain(s) replacing PDGFRα domain(s). The PDGFRβ/α chimera were tested for the ability of 2C5 binding. Shorter versions of PDGFRβ, including D1D2, D2D3 and D1D2D3, were then made to confirm the 2C5 binding domains on PDGFRβ.

h5α = h5α (Homo sapiens, UniProt P16234); test: Epitope mapping
Procedure: as §1

m5β = biological target: T1, m5β (Mus musculus, UniProt P05622); test: Epitope mapping
T1 sequence (P05622 32-531 limits assumed): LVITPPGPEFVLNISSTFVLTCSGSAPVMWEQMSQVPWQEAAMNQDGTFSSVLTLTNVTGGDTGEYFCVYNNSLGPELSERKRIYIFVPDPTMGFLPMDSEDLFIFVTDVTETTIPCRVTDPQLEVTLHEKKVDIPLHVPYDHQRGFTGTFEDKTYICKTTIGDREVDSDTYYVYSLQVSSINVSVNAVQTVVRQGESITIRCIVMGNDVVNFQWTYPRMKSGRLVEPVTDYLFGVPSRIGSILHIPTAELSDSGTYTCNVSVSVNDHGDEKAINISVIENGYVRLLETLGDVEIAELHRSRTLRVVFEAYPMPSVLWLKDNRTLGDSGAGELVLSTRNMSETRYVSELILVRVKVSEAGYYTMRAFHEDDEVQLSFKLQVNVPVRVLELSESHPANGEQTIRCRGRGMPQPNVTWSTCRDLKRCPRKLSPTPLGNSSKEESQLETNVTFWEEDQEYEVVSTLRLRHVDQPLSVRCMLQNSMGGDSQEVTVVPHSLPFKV
Procedure: as §1, with “2C5 binds to domain 1 (D1) and domain 2 (D2) of PDGFRβ. Various” for “Various”

4β1α = test: Epitope mapping, PDGFRβ/α chimera
Procedure: as §1, with “2C5 binds to domain 1 (D1) and domain 2 (D2) of PDGFRβ. Various” for “Various”

3β2α = test: Epitope mapping, PDGFRβ/α chimera
Procedure: as §1, with “2C5 binds to domain 1 (D1) and domain 2 (D2) of PDGFRβ. Various” for “Various”

β1-3 = test: Epitope mapping, shorter version of PDGFRβ (D1D2D3)
Procedure: as §1, with “2C5 binds to domain 1 (D1) and domain 2 (D2) of PDGFRβ. Various” for “Various”

Sequence of h5α (P16234 24-528 limits assumed): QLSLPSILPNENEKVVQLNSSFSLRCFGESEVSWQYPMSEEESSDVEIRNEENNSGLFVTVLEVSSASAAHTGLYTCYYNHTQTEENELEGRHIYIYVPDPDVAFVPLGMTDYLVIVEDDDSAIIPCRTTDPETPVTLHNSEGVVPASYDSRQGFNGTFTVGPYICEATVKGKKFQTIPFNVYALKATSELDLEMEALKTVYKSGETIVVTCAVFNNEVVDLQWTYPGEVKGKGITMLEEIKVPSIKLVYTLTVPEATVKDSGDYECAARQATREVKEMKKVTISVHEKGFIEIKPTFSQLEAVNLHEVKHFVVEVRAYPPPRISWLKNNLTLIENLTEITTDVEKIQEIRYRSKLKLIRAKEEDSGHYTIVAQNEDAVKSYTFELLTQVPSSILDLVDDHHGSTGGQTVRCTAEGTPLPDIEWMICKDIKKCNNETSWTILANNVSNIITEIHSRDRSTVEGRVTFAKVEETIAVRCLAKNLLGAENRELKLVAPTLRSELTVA

PDGF-BB: platelet-derived growth factor dimer, ligand of PDGFRβ and PDGFRα [reference compound]
✓: binding to 2β3α (2β3α) | binding to h5α (h5α) | binding to m5β (m5β) | binding to 4β1α (4β1α) | binding to 3β2α (3β2α) | binding to β1-3 (β1-3)

Source: US7740850B2, “PDGFRβ-specific antibodies” (ImClone, LLC, priority 2007, dated 2010)
